Data on 23 molecules can be found in patent publication US7153849B2, “Antidepressant arylpiperazine derivatives of hetrocycle-fused benzodioxans” (Wyeth, priority 2002, dated 2006).

One data set has as its target T1, human 5HT1A receptors (Homo sapiens, UniProt P08908).
T1 construct: expressed in transfected cells; host or cells: CHO cells
T1 sequence (P08908 1-422): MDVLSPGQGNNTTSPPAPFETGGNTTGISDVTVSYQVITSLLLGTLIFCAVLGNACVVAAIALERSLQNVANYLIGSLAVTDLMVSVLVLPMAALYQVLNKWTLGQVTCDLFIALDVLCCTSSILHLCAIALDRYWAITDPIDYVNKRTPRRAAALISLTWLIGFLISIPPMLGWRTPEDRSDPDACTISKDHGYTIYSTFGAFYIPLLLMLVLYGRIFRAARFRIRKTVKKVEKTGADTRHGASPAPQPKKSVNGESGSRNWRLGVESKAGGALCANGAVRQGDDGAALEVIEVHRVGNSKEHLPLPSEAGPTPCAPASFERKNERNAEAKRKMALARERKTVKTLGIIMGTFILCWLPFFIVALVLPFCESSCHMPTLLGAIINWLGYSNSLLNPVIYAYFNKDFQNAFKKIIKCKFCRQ
As to the kind of experiment: [3H] 8-OH-DPAT displacement from 5HT1A receptor in stably transfected CHO cells. Format: binding. As to conditions: CHO cells with human 5HT1A; for Ki: read-out: 5HT1A Receptor Affinity Ki. The source says:
High affinity for the serotonin 5HT1A receptor was established by testing the claimed compound's ability to displace [^3H] 8-OH-DPAT (dipropylamino-tetralin) from the 5HT1A serotonin receptor following a modification of the procedure of Hall et al., J. Neurochem. 44, 1685 (1985) which utilizes CHO cells stably transfected with human 5HT1A receptors.

The target in another data set is T2, serotonin transporter (Rattus norvegicus, UniProt P31652).
T2 construct: displace ^3H-paroxetine from male rat frontal cortical membranes; from tissue; host or cells: male rat frontal cortical membranes
T2 sequence (P31652 whole entry): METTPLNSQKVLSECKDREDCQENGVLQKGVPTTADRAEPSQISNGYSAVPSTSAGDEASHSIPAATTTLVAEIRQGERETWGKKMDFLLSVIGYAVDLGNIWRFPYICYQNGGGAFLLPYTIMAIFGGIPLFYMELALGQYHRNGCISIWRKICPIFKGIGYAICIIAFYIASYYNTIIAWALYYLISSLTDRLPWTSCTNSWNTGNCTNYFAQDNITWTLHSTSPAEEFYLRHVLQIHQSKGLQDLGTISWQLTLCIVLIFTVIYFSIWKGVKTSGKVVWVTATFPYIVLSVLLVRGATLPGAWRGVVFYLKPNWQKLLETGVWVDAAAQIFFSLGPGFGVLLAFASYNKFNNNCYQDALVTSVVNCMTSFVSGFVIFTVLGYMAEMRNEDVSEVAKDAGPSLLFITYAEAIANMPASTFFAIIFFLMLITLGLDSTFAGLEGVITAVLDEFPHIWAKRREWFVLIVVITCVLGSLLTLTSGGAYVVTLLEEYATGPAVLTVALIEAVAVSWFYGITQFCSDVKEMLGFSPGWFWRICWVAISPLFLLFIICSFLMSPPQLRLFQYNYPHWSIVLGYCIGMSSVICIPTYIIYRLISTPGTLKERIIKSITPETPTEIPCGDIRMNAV
Briefly: 3H-paroxetine displacement from rat frontal cortical membranes (serotonin transporter affinity). Format: binding. As to conditions: for Ki: 3H-paroxetine, male rat frontal cortical membranes, read-out: 5-HT Transporter Affinity Ki.

Data set [1] concerns the target T3, cloned human 5HT1A receptors (Homo sapiens, UniProt P08908).
T3 construct: expressed in transfected cells
T3 sequence (P08908 1-422): T1 sequence (P08908 1-422)
Briefly: 35S-GTPγS binding assay, 5HT1A antagonist activity. Format: biochemical. As to conditions: for 5HT1A Function Imax: maximum inhibitory effect, vs 8-OH-DPAT, unit assumed; for IC50: reversal of 8-OH-DPAT (antagonist), read-out: 5HT1A Function IC50; for 5HT1A Function Emax / EC50: increase in binding (agonist); for EC50: read-out: 5HT1A Function EC50. The method, then: Antagonist activity at 5HT1A receptors was established by using a ^35S-GTPγS binding assay similar to that used by Lazareno and Birdsall (Br. J. Pharmacol. 109:1120, 1993), in which the test compound's ability to affect the binding of ^35S-GTPγS to membranes containing cloned human 5HT1A receptors was determined. Agonists produce an increase in binding whereas antagonists produce no increase but rather reverse the effects of the standard agonist 8-OH-DPAT. The test compound's maximum inhibitory effect is represented as the Imax, while its potency is defined by the IC50.
(Binding of GTPγS marks nucleotide exchange on a G protein.)

Where a name gives a salt, the structure may show the parent alone.

One may read the Ki as a measure of affinity in units of concentration, obtained from inhibition or displacement. One may read the IC50 as the concentration that gives 50% inhibition. Usually melting point stands for the temperature of the solid-liquid transition. As a reminder, the EC50 is the concentration giving half of the maximal effect.

Turning to `N#Cc1ccc2nc(N3CCN(C[C@H]4COc5ccc6ncccc6c5O4)CC3)ccc2c1` [Example 24, (2S)-2-[4-(2,3-Dihydro-[1,4]dioxino[2,3-f]quinolin-2-ylmethyl)-piperazin-1-yl]-quinoline-6-carbonitrile], the inhibition constant (Ki) turned out to be 7.27 nM at human 5HT1A receptors and 310 nM on serotonin transporter. For the same molecule, in data set [1], the 5HT1A Function Imax is 58%. Moreover, the IC50 in data set [1] was 57 nM.

As for `Cc1ccc2c3c(ccc2n1)OC[C@H](CN1CCN(c2ccc4cc(C(N)=O)ccc4n2)CC1)O3` [Example 23], at human 5HT1A receptors, the Ki turned out to be 7.21 nM. Moreover, the “5-HT Transporter Affinity, % @ 1 μM” value on serotonin transporter came out at 56% @ 1 μM. Also, in data set [1], the 5HT1A Function Imax was 71% and the IC50 turned out to be 129 nM.

Consider `Cc1ccc2c3c(ccc2n1)OC[C@H](CN1CCN(c2cccc4c2OCCO4)CC1)O3` (as salt: fumarate) [Example 7, (2S)-2-{[4-(dihydrobenzo[1,4]dioxin-5-yl)piperazin-1-yl]methyl}-8-methyl-2,3-dihydro[1,4]dioxino[2,3-f]quinoline], for which the melting point was in the range of 154 to 155 °C.

For the molecule `Cc1ccc2c3c(ccc2n1)OC[C@H](CN1CCN(c2coc4ccccc24)CC1)O3` [Example 18, (2S)-2-{[4-(1-benzofuran-3-yl)-1-piperazinyl]methyl}-8-methyl-2,3-dihydro[1,4]dioxino[2,3-f]quinoline], the results for the Ki at human 5HT1A receptors and at serotonin transporter were 40.3 nM and 16 nM, respectively.

As to `Cc1ccc2c3c(ccc2n1)OC[C@H](CN1CCN(c2ccc(Cl)c(Cl)c2)CC1)O3` [Example 3, (2S)-2-{[4-(3,4-dichlorophenyl)piperazin-1-yl]methyl}-8-methyl-2,3-dihydro[1,4]dioxine[2,3-f]quinoline], the inhibitory constant (Ki) amounted to 1050 nM on human 5HT1A receptors and 76 nM at serotonin transporter.

With `Cc1ccc2c3c(ccc2n1)OC[C@H](CN1CCN(c2ccc4ccccc4n2)CC1)O3` [Example 12, (2S)-8-methyl-2-[(4-quinolin-2-ylpiprazin-1-yl)methyl]-2,3-dihydro[1,4]dioxino[2,3-f]quinoline], on human 5HT1A receptors, the Ki was found to be 47.3 nM. Moreover, the Ki on serotonin transporter came out at 48 nM. Moreover, in data set [1], the 5HT1A Function Imax was found to be 100% and the IC50 was 3000 nM.

For `Cc1ccc2c3c(ccc2n1)OC[C@H](CN1CCN(c2ccc4cc([N+](=O)[O-])ccc4n2)CC1)O3` (as salt: salt) [Example 13], the melting point was 200 °C (dec.).

In the case of `Cc1ccc2c3c(ccc2n1)OC[C@H](CN1CCNCC1)O3` [Example 29, 8-Methyl-2-piperazin-1-ylmethyl-2,3-dihydro-[1,4]dioxino[2,3-f]quinoline], the Ki on human 5HT1A receptors is 1.26 nM. Moreover, on serotonin transporter, the Ki was determined as 200 nM. Besides, in data set [1], the 5HT1A Function Imax came out at 100% and the concentration for half-maximal inhibition (IC50) amounted to 1320 nM.

Take `Cc1ccc2c3c(ccc2n1)OC[C@H](CN1CCN(c2coc4ccc(F)cc24)CC1)O3` [Example 17, (2S)-2-{[4-(5-fluoro-1-benzofuran-3-yl)-1-piperazinyl]methyl}-8-methyl-2,3-dihydro[1,4]dioxino[2,3-f]quinoline]: the figures for the inhibitory constant (Ki) on human 5HT1A receptors and on serotonin transporter were 718 nM and 74 nM, respectively.

For the molecule `Cc1ccc2c3c(ccc2n1)OC[C@H](CN1CCN(c2ccc(Cl)cc2)CC1)O3` [Example 2, (2S)-2-{[4-(4-chlorophenyl)piperazin-1-yl]methyl}-8-methyl-2,3-dihydro[1,4]dioxino[2,3-f]quinoline], the inhibitory constant (Ki) on human 5HT1A receptors came out at 22.9 nM. For the same molecule, the inhibition constant Ki at serotonin transporter worked out at 565 nM. Also, in data set [1], the 5HT1A Function Imax was found to be 26% and the IC50 was found to be 632 nM.

Take `Cc1ccc2c3c(ccc2n1)OC[C@H](CN1CCN(c2cccc4c2OCCO4)CC1)O3` [Example 7, (2S)-2-{[4-(dihydrobenzo[1,4]dioxin-5-yl)piperazin-1-yl]methyl}-8-methyl-2,3-dihydro[1,4]dioxino[2,3-f]quinoline]: the “5HT1A Receptor Affinity, % @ 1 μM” value at human 5HT1A receptors (@ 1 μM) is reported as 91% @ 1 μM. Further, on serotonin transporter, the inhibition constant Ki was 1.2 nM. Further, the concentration for half-maximal inhibition (IC50) in data set [1] worked out at 557 nM.

For `COc1ccc2nc(N3CCCN(C[C@H]4COc5ccc6nc(C)ccc6c5O4)CC3)ccc2c1` [Example 33, (2S)-2-{[4-(6-methoxyquinolin-2-yl)-1,4-diazepan-1-yl]methyl]-8-methyl-2,3-dihydro[1,4]dioxino[2,3-f]quinoline], at human 5HT1A receptors, the inhibition constant (Ki) was determined as 1.75 nM. For the same molecule, the inhibition constant Ki at serotonin transporter came to 7.3 nM. Also, in data set [1], the 5HT1A Function Imax stood at 92% and the IC50 is 316 nM.

On to `Cc1ccc2c3c(ccc2n1)OC[C@H](CN1CCN(c2ccc4cc(C#N)ccc4n2)C[C@H]1C)O3` [Example 20], for which, at human 5HT1A receptors, the inhibition constant Ki worked out at 2.85 nM. Also, the Ki at serotonin transporter is 688 nM. Moreover, in data set [1], the 5HT1A Function Imax came out at 92% and the half-inhibitory concentration (IC50) is 82.8 nM.

Molecule `Cc1ccc2c3c(ccc2n1)OC[C@H](CN1CCCN(c2ccc4cc(C#N)ccc4n2)CC1)O3` [Example 34, 2-(4-{[(2S)-8-Methyl-2,3-dihydro[1,4]dioxino[2,3-f]quinolin-2-yl]methyl}-1,4-diazepan-1-yl)quinoline-6-carbonitrile] had a melting point of 80 to 85 °C. Further, the inhibitory constant (Ki) on human 5HT1A receptors worked out at 2.04 nM. On serotonin transporter, the Ki was determined as 1.09 nM.

In the case of `Cc1ccc2c3c(ccc2n1)OC[C@H](CN1CCN(c2ccc4cc([N+](=O)[O-])ccc4n2)CC1)O3` [Example 13], the inhibition constant Ki on human 5HT1A receptors was determined as 20 nM; at serotonin transporter it was 0.25 nM. The same molecule had a 5HT1A Function Imax in data set [1] of 70%. The IC50 in data set [1] stood at 326 nM.

`Cc1nc2ccc3c(c2o1)O[C@@H](CN1CCN(c2ccc4cc(C#N)ccc4n2)CC1)CO3` [Example 26, (2S)-2-[4-(2-Methyl-7,8-dihydro-1,6,9-trioxa-3-aza-cyclopenta[a]naphthalen-8-ylmethyl)-piperazin-1-yl]-quinoline-6-carbonitrile]: the Ki at human 5HT1A receptors amounted to 25.1 nM. For the same molecule, the inhibition constant Ki on serotonin transporter is 407 nM. Further, in data set [1], the “5HT1A Function Emax” value was 64 and the half-maximal effective concentration (EC50) turned out to be 700 nM.

As for `Cc1ccc2c3c(ccc2n1)OC[C@H](CN1CCN(c2ccc4ccccc4n2)CC1)O3` (as salt: hydrochloride) [Example 12, (2S)-8-methyl-2-[(4-quinolin-2-ylpiprazin-1-yl)methyl]-2,3-dihydro[1,4]dioxino[2,3-f]quinoline], the melting point lay within 237 to 243 °C.

`Cc1ccc2c3c(ccc2n1)OC[C@H](CN1CCN(c2ccc4cc(C#N)ccc4n2)CC1)O3` [Example 15, 2-(4-{[(2S)-8-methyl-2,3-dihydro[1,4]dioxino[2,3-f]quinolin-2-yl]methyl}piperazin-1-yl}quinoline-6-carbonitrile]: the figures for the inhibitory constant (Ki) on human 5HT1A receptors and on serotonin transporter were 3.7 nM and 13.5 nM, respectively. In data set [1], the IC50 came out at 82.5 nM.

As for `Cc1ccc2c3c(ccc2n1)OC[C@H](CN1CCN(c2ccc(Cl)c(Cl)c2)CC1)O3` (as salt: fumarate) [Example 3, (2S)-2-{[4-(3,4-dichlorophenyl)piperazin-1-yl]methyl}-8-methyl-2,3-dihydro[1,4]dioxine[2,3-f]quinoline], the melting point lay within 140 to 144 °C.

For the molecule `Cc1ccc2c3c(ccc2n1)OC[C@H](CN1CCN(c2ccc4ccccc4c2)CC1)O3` [Example 22, (2S)-8-methyl-2-{[4-(2-naphthyl)piperazin-1-yl]methyl}-2,3-dihydro[1,4]dioxino[2,3-f]quinoline], on human 5HT1A receptors, the inhibition constant (Ki) is 53.2 nM. Moreover, the inhibition constant Ki on serotonin transporter amounted to 19.8 nM. In data set [1], the 5HT1A Function Imax is 76% and the half-inhibitory concentration (IC50) was 4540 nM.

As to `CCc1ccc2c3c(ccc2n1)OC[C@H](CN1CCN(c2ccc4cc(C#N)ccc4n2)CC1)O3` [Example 25, (2S)-2-[4-(8-Ethyl-2,3-dihydro-[1,4]dioxino[2,3-f]quinolin-2-ylmethyl)-piperazin-1-yl]-quinoline-6-carbonitrile], the Ki on human 5HT1A receptors was 4.74 nM. The Ki at serotonin transporter was 67 nM. Further, in data set [1], the “5HT1A Function Emax” value was 67 and the half-maximal effective concentration (EC50) stood at 1140 nM.

For the molecule `Cc1ccc2c3c(ccc2n1)OC[C@H](CN1CCN(c2ccc4cc(Cl)ccc4n2)CC1)O3` [Example 14], the inhibition constant (Ki) at human 5HT1A receptors came out at 214 nM. The inhibition constant Ki at serotonin transporter was 0.65 nM. Moreover, in data set [1], the 5HT1A Function Imax turned out to be 58% and the 50% inhibitory concentration (IC50) stood at 74.7 nM.

`COc1ccc2nc(N3CCN(C[C@H]4COc5ccc6nc(C)ccc6c5O4)CC3)ccc2c1` [Example 30, (2S)-2-{[4-(6-methoxyquinolin-2-yl)piperazin-1-yl]methyl]-8-methyl-2,3-dihydro[1,4]dioxino[2,3-f]quinoline]: the melting point lay within 158 to 160 °C.
